Measured values: US20110230493A1, “1-OXA-8-Azaspiro [4,5] Decabe-8-Carboxamide Compounds as FAAH Inhibitors” (Pfizer Inc., priority 2008, published 2011)

Columns and labels:
human FAAH = target: T1, human FAAH (Homo sapiens, UniProt O00519); experiment: FAAH assay, human FAAH enzyme inactivation (kinact/Ki); assay type: biochemical; details: oleamide 50 μM, 30° C.; for kinact/KI: pH 7.4, in vitro, read-out: hFAAH kinact/Ki
T1 construct: made in house; host or cells: E. coli
T1 sequence (O00519 1-579): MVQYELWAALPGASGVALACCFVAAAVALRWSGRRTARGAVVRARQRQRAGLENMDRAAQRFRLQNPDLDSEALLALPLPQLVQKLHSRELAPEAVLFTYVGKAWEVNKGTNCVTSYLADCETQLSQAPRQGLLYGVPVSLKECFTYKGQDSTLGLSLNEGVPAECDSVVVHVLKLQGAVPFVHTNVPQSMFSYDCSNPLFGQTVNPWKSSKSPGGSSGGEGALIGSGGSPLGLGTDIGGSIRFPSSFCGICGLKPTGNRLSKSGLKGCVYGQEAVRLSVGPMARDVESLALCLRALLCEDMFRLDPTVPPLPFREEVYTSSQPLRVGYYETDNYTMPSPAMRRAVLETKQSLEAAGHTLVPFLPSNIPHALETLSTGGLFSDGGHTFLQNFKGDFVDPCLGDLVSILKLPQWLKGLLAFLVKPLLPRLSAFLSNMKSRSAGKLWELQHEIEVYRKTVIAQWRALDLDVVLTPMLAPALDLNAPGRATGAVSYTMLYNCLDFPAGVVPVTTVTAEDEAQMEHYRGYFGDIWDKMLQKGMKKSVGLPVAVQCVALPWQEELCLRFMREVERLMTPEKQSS
Procedure: (§1) The FAAH assay was carried out in 384-well clear polystyrene plates (Evergreen Scientific) in a total volume of 50 μl per well in a manner similar to that described by Mileni et al., Proc. Nat. Acad. Sci. 2008, 105, 12820-12824. All percents are by volume. Serial dilutions of compound were initially prepared in 100% DMSO, and then diluted two-fold into HPLC-grade H2O to give 50% DMSO. To each well, was placed the reaction mixture (40 μl) containing 1-4 nM FAAH, 50 mM NaPi, pH 7.4, 3 mM α-ketoglutarate, 0.15 mM NADH, 7.5 U/ml glutamate dehydrogenase, 2 mM ADP, 1 mM EDTA, and 0.1% Triton X-100 (The concentration shown for each component is the final concentration in the assay). To this mixture, was added 5 μl of a compound of Examples 1 to 101 at various concentrations in 50% DMSO (or 5 μl 50% DMSO for controls). This was immediately followed by the addition of 5 μl oleamide (500 μM) dissolved in 75% EtOH/25% DMSO and the reaction mixture was mixed for 1.5 min. The final concentrations of DMSO and EtOH in the assay were each 7.5%. The reactions were incubated at 30° C. and the absorbance at 340 nm was collected over a period of 90 min with readings taken in 30-second intervals using SpectraMax Plus^384 Microplate Spectrophotometer (Molecular Devices, Sunnyvale, Calif.). The human FAAH and rat FAAH used in the assay was prepared as described in the patent application WO 2006/067613 using wild-type E. coli cells transformed in St. Louis, Mo., U.S.A. The purity of the enzyme was greater than 98% based on an analysis by SDS-polyacrylamide gel electrophoresis followed by Coomassie Blue staining.
(§2) Reaction progress curves were corrected for the non-enzymatic oxidation of NADH by subtraction of absorbancies at each time point obtained from control reactions containing no FAAH enzyme. The loss of enzyme activity as a function of time is well-described by the following mathematical equation (1) for a mono-exponential decay: […]
(§3) where At represents the absorbance at time t, A0 represents the absorbance at time zero, and C represents a constant. Observed rates of enzyme inactivation (kobs) were determined from the non-linear reaction progress curves by fitting the corrected absorbancies to an equation for a mono-exponential decay using the third-party Microsoft Excel plug-in, XLfit (IDBS Limited). Secondary plots of kobs vs. inhibitor concentration were prepared from kobs values obtained from progress curves. Second-order rates for enzyme inactivation, expressed as kinact/Ki (M^−1 s^−1), were calculated from the slopes from linear regression analysis of the secondary plot of kobs vs. inhibitor concentration as defined in following equation (2), where [I]<<Ki:
(§4) The concentration of substrate in the assay was equal to the Km for oleamide of 50 μM. Therefore, reported kinact/Ki values are obtained by multiplying resulting slopes by a factor of two (i.e. slope=kinact/(Ki*2)).
(§5) Table 1, below, lists human FAAH (hFAAH) and rat FAAH (rFAAH) enzyme inhibition values for Examples 1-101 as a ratio of kinact/Ki (M^−1 s^−1).

rat FAAH = target: T2, rat FAAH (Rattus norvegicus, UniProt P97612); experiment: FAAH assay, rat FAAH enzyme inactivation (kinact/Ki); assay type: biochemical; details: oleamide 50 μM, 30° C.; for kinact/KI: pH 7.4, in vitro, read-out: rFAAH kinact/Ki
T2 construct: made in house; host or cells: E. coli
T2 sequence (P97612 1-579): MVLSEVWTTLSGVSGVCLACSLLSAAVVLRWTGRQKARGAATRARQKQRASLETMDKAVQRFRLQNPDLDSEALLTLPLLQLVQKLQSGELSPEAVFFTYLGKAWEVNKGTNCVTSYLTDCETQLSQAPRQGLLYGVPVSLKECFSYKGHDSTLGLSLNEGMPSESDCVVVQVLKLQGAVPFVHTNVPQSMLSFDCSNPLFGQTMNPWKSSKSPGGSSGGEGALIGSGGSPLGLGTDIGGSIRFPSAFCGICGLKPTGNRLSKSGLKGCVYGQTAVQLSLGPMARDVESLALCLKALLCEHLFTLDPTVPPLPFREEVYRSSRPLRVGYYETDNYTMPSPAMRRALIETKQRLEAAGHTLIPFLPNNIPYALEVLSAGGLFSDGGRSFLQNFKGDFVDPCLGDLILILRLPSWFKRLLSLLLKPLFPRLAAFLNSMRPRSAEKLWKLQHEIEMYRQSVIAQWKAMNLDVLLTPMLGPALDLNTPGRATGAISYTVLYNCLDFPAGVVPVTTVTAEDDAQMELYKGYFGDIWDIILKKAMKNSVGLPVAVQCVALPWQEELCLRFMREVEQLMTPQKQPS
Procedure: as §1, §2, §3, §4, §5

SMILES | kinact/KI (human FAAH) [M⁻¹ s⁻¹] | kinact/KI (rat FAAH) [M⁻¹ s⁻¹] | hFAAH kinact/Ki (human FAAH; in vitro, pH 7.4) [M⁻¹ s⁻¹] | rFAAH kinact/Ki (rat FAAH; in vitro, pH 7.4) [M⁻¹ s⁻¹]
Cc1noc(NC(=O)N2CCC3(CC2)CC(c2ccc(OCc4ccc(F)c(F)c4)cc2)CO3)c1C (racemic) [Example 30, (3RS)-3-{4-[(3,4-difluorobenzyl)oxy]phenyl}-N-(3,4-dimethylisoxazol-5-yl)-1-oxa-8-azaspiro[4.5]decane-8-carboxamide] | 7380 | 5800 |  | 
Cc1noc(NC(=O)N2CCC3(CC2)C[C@H](c2cccc(-c4ccc(F)c(F)c4)c2)CO3)c1C [Example 58, (3R)-3-(3′,4′-difluorobiphenyl-3-yl)-N-(3,4-dimethylisoxazol-5-yl)-1-oxa-8-azaspiro[4.5]decane-8-carboxamide] | 2780 | 707 |  | 
Cc1noc(NC(=O)N2CCC3(CC2)CC(c2cc(F)cc(Cl)c2)CO3)c1C (racemic) [Example 16, (3RS)-3-(3-chloro-5-fluorophenyl)-N-(3,4-dimethylisoxazol-5-yl)-1-oxa-8-azaspiro[4.5]decane-8-carboxamide] | 1990 | 3590 |  | 
CCCc1noc(NC(=O)N2CCC3(CC2)CC(c2ccc(Cl)c(Cl)c2)CO3)c1C (single isomer, unassigned) [Example 69, 3-(3,4-dichlorophenyl)-N-(3-n-propyl-4-methylisoxazol-5-yl)-1-oxa-8-azaspiro[4.5]decane-8-carboxamide] | 960 | 4880 |  | 
Cc1noc(NC(=O)N2CCC3(CC2)CC(c2ccc(OCc4ccccc4Cl)c(Cl)c2)CO3)c1C (racemic) [Example 18, (3RS)-3-{3-chloro-4-[(2-chlorobenzyl)oxy]phenyl}-N-(3,4-dimethylisoxazol-5-yl)-1-oxa-8-azaspiro[4.5]decane-8-carboxamide] | 2290 | 2840 |  | 
Cc1noc(NC(=O)N2CCC3(CC2)CC(c2cccc(-c4ccc(F)c(F)c4)c2)CO3)c1C (racemic) [Example 53, (3RS)-3-(3′,4′-difluorobiphenyl-3-yl)-N-(3,4-dimethylisoxazol-5-yl)-1-oxa-8-azaspiro[4.5]decane-8-carboxamide] | 2020 | 1470 |  | 
Cc1noc(NC(=O)N2CCC3(CC2)CC(c2noc(-c4ccc(C(F)(F)F)cc4)n2)CO3)c1C (racemic) [Example 74, (3RS)—N-(3,4-dimethylisoxazol-5-yl)-3-{5-[4-(trifluoromethyl)phenyl]-1,2,4-oxadiazol-3-yl}-1-oxa-8-azaspiro[4.5]decane-8-carboxamide] | 2380 | 1140 |  | 
Cc1nnc(NC(=O)N2CCC3(CC2)CC(c2cccc(OC(F)(F)F)c2)CO3)o1 (single isomer, unassigned) [Example 70, N-(5-methyl-1,3,4-oxadiazol-2-yl)-3-[3-(trifluoromethoxy)phenyl]-1-oxa-8-azaspiro[4.5]decane-8-carboxamide] | 2110 | 2390 |  | 
Cc1noc(NC(=O)N2CCC3(CC2)CC(c2ccc(Cl)cc2F)CO3)c1C (racemic) [Example 27, (3RS)-3-(4-chloro-2-fluorophenyl)-N-(3,4-dimethylisoxazol-5-yl)-1-oxa-8-azaspiro[4.5]decane-8-carboxamide] | 2090 | 1140 |  | 
Cn1nnnc1NC(=O)N1CCC2(CC1)C[C@H](c1ccc(OCc3cccc(F)c3)cc1)CO2 [Example 86, (3R)-3-{4-[(3-fluorobenzyl)oxy]phenyl}-N-(1-methyl-1H-tetrazol-5-yl)-1-oxa-8-azaspiro[4.5]decane-8-carboxamide] | 28400 | 11200 |  | 
Cc1noc(NC(=O)N2CCC3(CC2)CC(c2ccc4ccccc4c2)CO3)c1C (racemic) [Example 25, (3RS)-N-(3,4-dimethylisoxazol-5-yl)-3-(2-naphthyl)-1-oxa-8-azaspiro[4.5]decane-8-carboxamide] | 2090 | 2240 |  | 
Cc1noc(NC(=O)N2CCC3(CC2)CC(c2ccc(Cl)c(F)c2)CO3)c1C (racemic) [Example 26, (3RS)-3-(4-chloro-3-fluorophenyl)-N-(3,4-dimethylisoxazol-5-yl)-1-oxa-8-azaspiro[4.5]decane-8-carboxamide] | 2140 | 2520 |  | 
Cc1noc(NC(=O)N2CCC3(CC2)CC(c2ccc(OCc4cccc(C(F)(F)F)n4)cc2)CO3)c1C (racemic) [Example 29, (3RS)-N-(3,4-dimethylisoxazol-5-yl)-3-(4-{[6-(trifluoromethyl)pyridin-2-yl]methoxy}phenyl)-1-oxa-8-azaspiro[4.5]decane-8-carboxamide] | 2110 | 3230 |  | 
Cc1noc(NC(=O)N2CCC3(CC2)CC(c2cccc(OC(F)(F)F)c2)CO3)c1C (racemic) [Example 13, (3RS)-N-(3,4-dimethylisoxazol-5-yl)-3-[3-(trifluoromethoxy)phenyl]-1-oxa-8-azaspiro[4.5]decane-8-carboxamide] | 1800 | 3110 |  | 
Cc1noc(NC(=O)N2CCC3(CC2)CC(c2ccc(Cl)c(Cl)c2)CO3)c1C (single isomer, unassigned) [Example 38, 3-(3,4-dichlorophenyl)-N-(3,4-dimethylisoxazol-5-yl)-1-oxa-8-azaspiro[4.5]decane-8-carboxamide] |  |  | 2050 | 2380
Cc1noc(NC(=O)N2CCC3(CC2)CC(c2ccc(OCc4ccc(Cl)cc4)cc2)CO3)c1C (racemic) [Example 23, (3RS)-3-{4-[(4-chlorobenzyl)oxy]phenyl}-N-(3,4-dimethylisoxazol-5-yl)-1-oxa-8-azaspiro[4.5]decane-8-carboxamide] | 6950 | 10900 |  | 
O=C(Nc1noc2ccccc12)N1CCC2(CC1)CC(c1cccc(Oc3ccc(Cl)cn3)c1)CO2 (racemic) [Example 101, (3RS)—N-1,2-benzisoxazol-3-yl-3-{3-[(5-chloropyridin-2-yl)oxy]phenyl}-1-oxa-8-azaspiro[4.5]decane-8-carboxamide] | 1780 | 8330 |  | 
